The record followed here is patent publication US20030229105A1, “Treatment of autoimmune disorders” (Cyclacel Limited, priority 2002, published 2003).

The test system of one data set is HIV-1. Nature of the data set: p24 antigen ELISA of supernatants from induced HIV-1 latently infected cells (ACH2, 8E5, U1). The class given is cell-based. Conditions: for inhibition of HIV-1 replication, prolonged treatment: U1 and 8E5 cells, up to 21 days, 5 or 10 μM (data not shown); for postintegrative HIV-1 progeny formation: low concentrations (data not shown). The procedure:
We chose HIV-1 stably integrated cells, lymphocytic ACH2 and 8E5 cell lines, as well as monocytic U1 cells (and their uninfected parental counterparts CEM and U937, respectively) for our initial studies, since viral transcription could be activated and scored through signals, such as Tat, TNF-α or phorbol myristate acetate (PMA) and PHA. We first activated viruses in these cells with TNF-α (10 ng/ml) at 37° C. for 2 h, followed by washing, and then we incubated cells with 10 μM concentrations of each drug. […] We next examined the effect of all three drugs on primary HIV-1 field isolates of SI and NSI strains. Activated PBMC were infected with two independent HIV-1 viral strains of SI (UG/92/029, subtype A envelope) and NSI (THA/92/001, subtype E envelope).
Five days later, the supernatants were collected, and the amount of newly synthesized HIV-1 was measured by p24 antigen assay. (B) Purified Tat (300 μg) was electroporated into ACH2, 8E5, and U1 cells and subsequently treated with various drugs for 5 days. […] Seven days later samples were collected and used for p19 gag ELISA. (E) PHA-activated PBMC (5×10^6) were infected with HIV-1 either SI (UG/92/029 Uganda strain, subtype A envelope) or NSI (THA/92/001, Thailand strain, subtype E envelope) strains. Unadsorbed viruses were washed after 6 h, and cells were cultured in fresh media with various cdk inhibitors (10 μM). Samples were collected every sixth day and used for p24 gag ELISA assay.
At days 2, 4, and 6, the supernatants were collected, and the released HIV-1 particles were measured by using a p24 antigen ELISA assay. (B) Twenty micrograms of total RNA was separated on an RNA-formaldehyde-agarose gel, transferred, and probed with full-length labeled HIV-1 genome RNA. The hybridized genomic RNA, singly spliced (structural), and doubly spliced (regulatory) RNAs were exposed and counted by using Molecular Dynamic PhosphorImager software.
Supernatants from the infected PBMC were collected and used directly for the p24 antigen assay. The p24 gag antigen level was analyzed by using the HIVAG-1 Monoclonal Antibody Kit (Abbott Laboratories, Diagnostics Division). The HTLV-1 p19 core antigen ELISA kit was from Retro-Tek (Cellular Products).
(In general: ELISA stands for enzyme-linked immunosorbent assay.)

Another data set concerns CEM cells. Nature of the data set: Cell proliferation, [3H]thymidine incorporation. Conditions: ca. 10 μM. The class given is cell-based. The source says: We next sought to determine whether the inhibition of HIV-1 transcription, observed above, could be mediated specifically by cdk inhibitors or by general cell cycle inhibitors. To distinguish between the two possibilities, we performed transfection experiments with all three cdk inhibitors tested above and two other well-established cell cycle inhibitors, namely, hydroxyurea and nocodazole. Hydroxyurea blocks DNA replication by inhibiting ribonucleotide reductase and thus arrests cell cycle progression at the G1/S checkpoint, while nocodazole blocks at G2/M by promoting tubulin depolymerization. […] Therefore, the basal transcription of HIV-1 was inhibited by purine analogs and not general cell cycle inhibitors.
FIG. 3 discloses inhibition of HIV-1 basal and activated transcription by cdk inhibitors. […] The graphs at the bottom of the figure represent the effect of various concentrations of general cell cycle inhibitors (hydroxyurea and nocodazole) on CEM cells. (B) Inhibition of activated transcription in CEM cells was examined using transfected HIV-1 LTR-CAT, together with pcTat plasmid. […]
Cells (CEM) were initially treated with various concentrations of hydroxyurea or nocodazole and evaluated after 0, 12, 24, 48, 60, and 72 h. […] The amount of radioactivity incorporated into the DNA was measured in a liquid scintillation counter (Packard) and expressed as the counts per minute (cpm). […]
(In general: Incorporation of labelled thymidine or its analogues reports DNA synthesis.)

Data set [1] deals with uninfected T and monocytic cells. Nature of the data set: Initial test of cdk inhibitors on uninfected cells (data not shown).

Take `COC(=O)Nc1nc2ccc(C(=O)c3cccs3)cc2[nH]1` [nocodazole, reference compound]: in the data set on HIV-1, the “inhibition of HIV-1 replication, prolonged treatment” value is “neither hydroxyurea nor nocodazole was able to inhibit HIV-1 replication” and the “postintegrative HIV-1 progeny formation” value is “slightly higher”. In the data set with CEM cells, the “inhibition of DNA synthesis” value is reported as “no inhibition of DNA synthesis was observed”.
As to `NC(=O)NO` [hydroxyurea, reference compound], in the data set on HIV-1, the “inhibition of HIV-1 replication, prolonged treatment” value is reported as “neither hydroxyurea nor nocodazole was able to inhibit HIV-1 replication” and the “postintegrative HIV-1 progeny formation” value is on record as “remained essentially the same”. Further, the “inhibition of DNA synthesis” value in the data set with CEM cells is “no inhibition of DNA synthesis was observed”.
For `Cn1cnc2c(NCc3ccccc3)nc(NCCO)nc21` [Olomoucine], in data set [1], the “toxicity in uninfected cells” value is “lack of toxicity”.
